From PMC5120204, “Identification of an orally active small-molecule PTHR1 agonist for the treatment of hypoparathyroidism” (Nature Communications, 2016)

How the values were obtained:
[1] = target: T1, hPTHR1 (Homo sapiens, UniProt Q03431); assay: Receptor binding assay, competition with 125I-[Aib1,3,M]–PTH(1–15) on COS-7 membranes; settings: at 100 μmol l^−1
T1 construct: similar to that of cells expressing full-length hPTHR1; expressed in transfected cells; host or cells: COS-7 (transient, FuGENE HD)
T1 sequence (Q03431 27-593 E93Y/D94P/K95Y/E96D/A97V/T99D/G100Y/S101A): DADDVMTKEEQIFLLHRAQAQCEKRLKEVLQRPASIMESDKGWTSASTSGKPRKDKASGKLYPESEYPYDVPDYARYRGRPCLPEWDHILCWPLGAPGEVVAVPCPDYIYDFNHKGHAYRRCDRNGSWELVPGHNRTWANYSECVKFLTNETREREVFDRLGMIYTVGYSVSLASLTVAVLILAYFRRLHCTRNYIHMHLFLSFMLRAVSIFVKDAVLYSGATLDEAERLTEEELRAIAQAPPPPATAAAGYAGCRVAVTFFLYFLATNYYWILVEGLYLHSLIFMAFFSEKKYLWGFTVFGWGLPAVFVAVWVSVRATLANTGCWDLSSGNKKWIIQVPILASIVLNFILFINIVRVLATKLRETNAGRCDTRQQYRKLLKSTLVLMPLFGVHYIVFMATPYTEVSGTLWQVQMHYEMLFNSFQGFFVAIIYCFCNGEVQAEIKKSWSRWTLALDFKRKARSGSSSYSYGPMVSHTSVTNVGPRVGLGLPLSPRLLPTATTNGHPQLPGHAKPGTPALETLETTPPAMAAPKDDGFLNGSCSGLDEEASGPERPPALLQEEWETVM
Method: COS-7 cells (ATCC) were seeded into 10-cm dishes (1.7 × 10^6 cells per dish) and incubated overnight. The next day, the COS-7 cells were transfected by adding 500 μl of a mixture of hPTHR1 plasmid (10 μg per dish), FuGENE HD Transfection Reagent (40 μl per dish, Promega) and Opti-MEM I Reduced Serum Medium (450 μl per well, Life Technologies) to each dish. On the third day after the cells were seeded into the dishes, the culture medium in the dishes was discarded, each dish was washed with 5 ml of Buffer A (10 mmol l^−1 Tris-HCl, pH 7.4/4 mmol l^−1 EDTA) without protease inhibitor cocktail (PI; Nacalai Tesque, Inc.), and then 750 μl of Buffer A (10 mmol l^−1 Tris-HCl, pH 7.4/4 mmol l^−1 EDTA/1 × PI) was added to each dish. […] The protein concentration was determined using Protein Assay Dye Reagent Concentrate (Bio-Rad Laboratories, Inc). […]
The binding of hPTH(1–34) and PCO371 free base to hPTHR1 was evaluated by competition assay using ^125I-[Aib^1,3,M]PTH(1–15) as the competing entity. […] The dried filter was recovered, and the ^125I radioactivity was measured using a gamma counter. […] Total ^125I count rates (cpm) measured by the gamma counter were used as the primary data. Binding to hPTHR1 was evaluated by calculating the per cent specific binding from the following formula using Microsoft Office Excel 2007.
Percentage specific binding was calculated by the following formula: equation (1) […]

[2] = system: UMR-106 cells; assay: Gene expression assay in UMR-106 cells; type: cell-based, rat
Method: UMR-106 cells (ATCC) were incubated with DMEM with 0.2% BSA for 4 h and were then treated with hPTH(1–34) or PCO371 for 1 or 6 h. At 1 or 6 h after adding test compounds, total RNA was isolated by using an RNeasy Plus Kit (Qiagen). cDNA was transcribed from the isolated total RNA by using TaqMan Reverse Transcription Reagents (Thermo Fisher Scientific). mRNA levels were quantified by a real-time PCR system (Thermo Fisher Scientific). The relative quantity of transcripts was calculated by using the comparative threshold cycle (Ct) method and normalized to 18S ribosomal RNA as an internal control. The following cDNA-specific primers and probes were used: Fos (encoded by Fos, Rn02396759_m1), osteocalcin (encoded by Bglap, Rn00566386_g1), receptor activator of nuclear factor-κB ligand (RANKL, encoded by Tnfsf11, Rn00589289_m1), osteoprotegerin (osteoprotegerin, encoded by Tnfrsf11b, Rn00563499_m1) and sclerostin (encoded by Sost, Rn00577971_m1).

## Cc1cc(N2C(=O)NC(=O)C2(C)C)cc(C)c1CCS(=O)(=O)N1CCC2(CC1)N=C(c1ccc(OC(F)(F)F)cc1)NC2=O [PCO371, 1-{3,5-dimethyl-4-[2-({4-oxo-2-[4-(trifluoromethoxy)phenyl]-1,3,8-triazaspiro[4.5]dec-1-en-8-yl}sulfonyl)ethyl]phenyl}-5,5-dimethylimidazolidine-2,4-dione]
[1]
  inhibition of the binding of 125I-[Aib1,3,M]–PTH(1–15): almost completely
[2]; 1 h (Fos) or 6 h
  expression of mRNAs for Fos, osteocalcin and RANKL: dose-dependently increased
[2]; 6 h
  expression of mRNAs for osteoprotegerin and sclerostin: dose-dependently decreased
